Values quoted from earlier work in patent publication US20040213782A1, “Compositions of an aquaporin modulating agent and an aqueous humor modulating agent for the treatment of elevated intraocular pressure” (Pharmacia Corporation, priority 2003, published 2004).

How the values were obtained:
AQP1 = conditions: epididymis of rats; Yu et al. (2002)
AQP2 = conditions: kidney of cardiomyopathic hamsters; Wong and Tsui (2002)
[1] = among corticosteroids; ophthalmic or systemic administration

Row | Molecule | expression of AQP2 (AQP2) | also measured
1 | CC(=O)Nc1nnc(S(N)(=O)=O)s1 [acetazolamide] |  | level of AQP1 expression (AQP1): significant decrease
2 | CCOC(=O)[C@H](CCc1ccccc1)N[C@@H](C)C(=O)N1CCC[C@H]1C(=O)O [enalapril] | significant decrease | 
3 | angiotensin II (DRVYIHPF; Angiotensin-2; UniProt P01019 25-32, looked up) [peptide that increases the expression of AQP2 in the kidney of cardiomyopathic hamsters] | increases | 
4 | C[C@@H]1C[C@H]2[C@@H]3CCC4=CC(=O)C=C[C@]4(C)[C@@]3(F)[C@@H](O)C[C@]2(C)[C@@]1(O)C(=O)CO [dexamethasone] |  | increase in intraocular pressure [1]: most pronounced increase
